# Measured values as given in PubChem BioAssay AID256 (DTP/NCI, 2004).
# Several values for one entry are separate records, joined by “and”; a condition that tells them apart may be missing. Equal entries are not always repeated. Toxic doses and inconclusive results are not listed.
# System: CD2F1 mice, L1210 leukemia ip, survival T/C
# Assay: NCI In Vivo Anticancer Drug Screen. Data for tumor model L1210 Leukemia (intraperitoneal) in CD2F1 (CDF1) mice
# Conditions: endpoint: mean survival time, higher = longer survival
# Summary of the method: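 Transplantable tumor in mice; compound-treated vs vehicle-treated groups. Read-out = treated/control ratio of the measured endpoint.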
# [1] = dose: 100.0 mg/kg/injection, schedule: Q04DX003 (ip), vehicle: saline with Tween-80
# [2] = dose: 200.0 mg/kg/injection, schedule: Q04DX003 (ip), vehicle: saline with Tween-80
# [3] = dose: 400.0 mg/kg/injection, schedule: Q04DX003 (ip), vehicle: saline with Tween-80
# [4] = dose: 100.0 mg/kg/injection, schedule: Q01DX001 (ip), vehicle: saline
# [5] = dose: 100.0 mg/kg/injection, schedule: Q01DX005 (ip), vehicle: water
# [6] = dose: 100.0 mg/kg/injection, schedule: Q04DX003 (ip), vehicle: saline
# [7] = dose: 200.0 mg/kg/injection, schedule: Q04DX003 (ip), vehicle: saline
# [8] = dose: 100.0 mg/kg/injection, schedule: Q01DX001 (ip), vehicle: saline with Tween-80
# [9] = dose: 400.0 mg/kg/injection, schedule: Q04DX003 (ip), vehicle: saline
# [10] = dose: 100.0 mg/kg/injection, schedule: Q01DX009 (ip), vehicle: saline with Tween-80
# [11] = dose: 200.0 mg/kg/injection, schedule: Q01DX001 (ip), vehicle: saline
# [12] = dose: 200.0 mg/kg/injection, schedule: Q01DX009 (ip), vehicle: saline with Tween-80
# [13] = dose: 400.0 mg/kg/injection, schedule: Q01DX001 (ip), vehicle: saline
# [14] = dose: 400.0 mg/kg/injection, schedule: Q01DX009 (ip), vehicle: saline with Tween-80
# [15] = dose: 25.0 mg/kg/injection, schedule: Q04DX002 (ip), vehicle: saline with Tween-80
# [16] = dose: 50.0 mg/kg/injection, schedule: Q04DX002 (ip), vehicle: saline with Tween-80
# [17] = dose: 100.0 mg/kg/injection, schedule: Q04DX002 (ip), vehicle: saline with Tween-80
structure (smiles),measurement,setting,value
[NH-]C(CCC(N)=O)C(=O)O.[NH-]C(CCC(N)=O)C(=O)O.[Pt+2] (stereo not given),T/C,"dose: 3.13 mg/kg/injection, schedule: Q04DX003 (ip), vehicle: distilled water + Tween-80",103 % of control
same,T/C,"dose: 6.25 mg/kg/injection, schedule: Q04DX003 (ip), vehicle: distilled water + Tween-80",104 % of control
same,T/C,"dose: 12.5 mg/kg/injection, schedule: Q04DX003 (ip), vehicle: distilled water + Tween-80",110 % of control
same,T/C,"dose: 25.0 mg/kg/injection, schedule: Q04DX003 (ip), vehicle: distilled water + Tween-80",110 % of control
same,T/C,"dose: 50.0 mg/kg/injection, schedule: Q04DX003 (ip), vehicle: distilled water + Tween-80",95 % of control
same,T/C,"dose: 100.0 mg/kg/injection, schedule: Q04DX003 (ip), vehicle: distilled water + Tween-80",104 % of control
same,T/C,"dose: 200.0 mg/kg/injection, schedule: Q04DX003 (ip), vehicle: distilled water + Tween-80",98 % of control
CC(C)Oc1ccc2c(c1)Sc1ccc(Cl)cc1N2,T/C,[1],93 % of control
same,T/C,[2],96 % of control
same,T/C,[3],102 % of control
CS(=O)(=O)OCC(=O)C(=O)COS(C)(=O)=O,T/C,"dose: 25.0 mg/kg/injection, schedule: Q01DX001 (ip), vehicle: saline",91 % of control
same,T/C,"dose: 50.0 mg/kg/injection, schedule: Q01DX001 (ip), vehicle: saline",94 % of control
same,T/C,[4],96 % of control and 103 % of control
CC1(C)CC(Cc2ccccc2)C(=O)c2ccccc21 (stereo not given),T/C,[1],94 % of control
same,T/C,[2],92 % of control
same,T/C,[3],94 % of control
Cc1nc2c(ncn2C2OC3COP(=O)(O)OC3C2O)c2nccn12 (stereo not given),T/C,"dose: 12.5 mg/kg/injection, schedule: Q01DX005 (ip), vehicle: water",95 % of control
same,T/C,"dose: 25.0 mg/kg/injection, schedule: Q01DX005 (ip), vehicle: water",100 % of control
same,T/C,"dose: 50.0 mg/kg/injection, schedule: Q01DX005 (ip), vehicle: water",90 % of control
same,T/C,[5],106 % of control
O=C(O)c1ccc([As](=O)(O)O)cc1[N+](=O)[O-],T/C,"dose: 50.0 mg/kg/injection, schedule: Q04DX003 (ip), vehicle: saline",105 % of control
same,T/C,[6],97 % of control
same,T/C,[7],95 % of control
CC(=O)OCC1OC(OC(C)=O)C(NC(=O)N(CCSCCCl)N=O)C(OC(C)=O)C1OC(C)=O (stereo not given),T/C,"dose: 0.78 mg/kg/injection, schedule: Q01DX001 (ip), vehicle: water",96 % of control
same,T/C,"dose: 1.56 mg/kg/injection, schedule: Q01DX001 (ip), vehicle: water",102 % of control
same,T/C,"dose: 3.12 mg/kg/injection, schedule: Q01DX001 (ip), vehicle: water",106 % of control
same,T/C,"dose: 6.25 mg/kg/injection, schedule: Q01DX001 (ip), vehicle: distilled water + Tween-80",106 % of control
same,T/C,"dose: 6.25 mg/kg/injection, schedule: Q01DX001 (ip), vehicle: water",106 % of control
CC(CCC(=O)O)(c1ccc(O)cc1)c1ccc(O)cc1,T/C,"dose: 100.0 mg/kg/injection, schedule: Q01DX009 (ip), vehicle: other",91 % of control
same,T/C,"dose: 200.0 mg/kg/injection, schedule: Q01DX009 (ip), vehicle: other",101 % of control
same,T/C,"dose: 400.0 mg/kg/injection, schedule: Q01DX009 (ip), vehicle: other",97 % of control
O=c1cc(C(Br)(Br)Br)[nH]c2ccccc12,T/C,[1],99 % of control
same,T/C,[2],97 % of control
same,T/C,[3],99 % of control
CSc1ccccc1N=Cc1cc(Cl)ccc1O,T/C,"dose: 25.0 mg/kg/injection, schedule: Q01DX001 (ip), vehicle: saline with Tween-80",96 % of control
same,T/C,"dose: 50.0 mg/kg/injection, schedule: Q01DX001 (ip), vehicle: saline with Tween-80",96 % of control
same,T/C,[8],96 % of control
C1CCC2NN=NC2C1 (stereo not given),T/C,[8],104 % of control
same,T/C,"dose: 200.0 mg/kg/injection, schedule: Q01DX001 (ip), vehicle: saline with Tween-80",98 % of control
CCCCC=CC1CCCCC1 (mixture of isomers),T/C,[6],94 % of control
same,T/C,[7],94 % of control
same,T/C,[9],94 % of control
CC(C)OC(N)=O,T/C,[4],94 % of control
same,T/C,[10],106 % of control
same,T/C,[6],97 % of control
same,T/C,[11],102 % of control
same,T/C,[12],103 % of control
same,T/C,[7],101 % of control
same,T/C,[13],100 % of control
same,T/C,[14],105 % of control
same,T/C,[9],100 % of control
CN(C(=O)N(CCCl)N=O)C1CCCCC1,T/C,"dose: 16.0 mg/kg/injection, schedule: Q01DX001 (ip), vehicle: saline with Tween-80",96 % of control
same,T/C,"dose: 24.0 mg/kg/injection, schedule: Q01DX001 (ip), vehicle: saline with Tween-80",98 % of control
same,T/C,"dose: 36.0 mg/kg/injection, schedule: Q01DX001 (ip), vehicle: saline with Tween-80",108 % of control
same,T/C,"dose: 54.0 mg/kg/injection, schedule: Q01DX001 (ip), vehicle: saline with Tween-80",110 % of control
same,T/C,"dose: 80.0 mg/kg/injection, schedule: Q01DX001 (ip), vehicle: saline with Tween-80",123 % of control
same,T/C,"dose: 180.0 mg/kg/injection, schedule: Q01DX001 (ip), vehicle: saline with Tween-80",236 % of control
same,T/C,"dose: 268.0 mg/kg/injection, schedule: Q01DX001 (ip), vehicle: saline with Tween-80",396 % of control
same,T/C,"dose: 400.0 mg/kg/injection, schedule: Q01DX001 (ip), vehicle: saline with Tween-80",353 % of control
CC(=O)Oc1cc2c(OC(C)=O)c(-c3c(C)cc4c(C(C)C)c(OC(C)=O)c(OC(C)=O)cc4c3OC(C)=O)c(C)cc2c(C(C)C)c1OC(C)=O,T/C,[15],100 % of control
same,T/C,[16],96 % of control
same,T/C,[17],89 % of control
CC(=O)OC1(c2ccccc2)CC(=O)C=C1c1ccccc1 (stereo not given),T/C,[15],102 % of control
same,T/C,[16],91 % of control
same,T/C,[17],87 % of control
O=C(O)c1ccccc1Oc1ccccc1C(=O)O,T/C,"dose: 100.0 mg/kg/injection, schedule: Q01DX009 (ip), vehicle: saline",101 % of control
same,T/C,"dose: 200.0 mg/kg/injection, schedule: Q01DX009 (ip), vehicle: saline",101 % of control
same,T/C,"dose: 400.0 mg/kg/injection, schedule: Q01DX009 (ip), vehicle: saline",94 % of control
Cc1cc(C)c(C(=O)CN2CCOCC2)c(C)c1,T/C,[1],98 % of control
same,T/C,[2],101 % of control
same,T/C,[3],95 % of control
O=C(CCCCl)Oc1ccccc1,T/C,[1],87 % of control
same,T/C,[2],87 % of control
same,T/C,[3],103 % of control
O=c1[nH]cnc2c1ncn2C1OCC(O)C(O)C1O (stereo not given),T/C,[4],102 % of control
same,T/C,[11],97 % of control
same,T/C,[13],103 % of control
CCOC(=O)CN1CC(=O)Nc2ccccc21,T/C,[1],95 % of control
same,T/C,[2],98 % of control
same,T/C,[3],111 % of control
O=c1nc(N2CCOCC2)ccn1C1OC(CO)C(O)C1O (stereo not given),T/C,[5],104 % of control
same,T/C,"dose: 200.0 mg/kg/injection, schedule: Q01DX005 (ip), vehicle: water",101 % of control
same,T/C,"dose: 400.0 mg/kg/injection, schedule: Q01DX005 (ip), vehicle: water",107 % of control
CC(C)CCCC(C)CO[P+](=O)OCC(C)CCCC(C)C (stereo not given),T/C,[17],103 % of control
same,T/C,"dose: 200.0 mg/kg/injection, schedule: Q04DX002 (ip), vehicle: saline with Tween-80",96 % of control
same,T/C,"dose: 400.0 mg/kg/injection, schedule: Q04DX002 (ip), vehicle: saline with Tween-80",88 % of control
CC(Oc1ccc(Br)cc1Br)C(=O)O (stereo not given),T/C,[10],97 % of control
same,T/C,[12],94 % of control
same,T/C,[14],94 % of control
NC(CS)=NCC12CC3CC(CC(C3)C1)C2,T/C,"dose: 12.5 mg/kg/injection, schedule: Q01DX001 (ip), vehicle: Klucel (hydroxypropylcellulose) (HPC)",92 % of control
same,T/C,"dose: 25.0 mg/kg/injection, schedule: Q01DX001 (ip), vehicle: Klucel (hydroxypropylcellulose) (HPC)",94 % of control
same,T/C,"dose: 50.0 mg/kg/injection, schedule: Q01DX001 (ip), vehicle: Klucel (hydroxypropylcellulose) (HPC)",101 % of control
C#CCOc1c(C(=O)OCC)cnc2c1c(C)nn2CC,T/C,"dose: 100.0 mg/kg/injection, schedule: Q04DX003 (ip), vehicle: Klucel (hydroxypropylcellulose) (HPC)",101 % of control
same,T/C,"dose: 200.0 mg/kg/injection, schedule: Q04DX003 (ip), vehicle: Klucel (hydroxypropylcellulose) (HPC)",97 % of control
same,T/C,"dose: 400.0 mg/kg/injection, schedule: Q04DX003 (ip), vehicle: Klucel (hydroxypropylcellulose) (HPC)",101 % of control
